Source: article PMC7751916, “Synthesis and bioactivities of 1-(4-hydroxyphenyl)-2-((heteroaryl)thio)ethanones as carbonic anhydrase I, II and acetylcholinesterase inhibitors” (Turkish Journal of Chemistry, 2020)

How the values were obtained:
hCA I = hCA I (Homo sapiens, UniProt P00915); assay: CAs inhibition assay (esterase activity, p-nitrophenyl acetate); type: biochemical
Excerpt: Human CA isoforms (hCAI and hCAII) were purified by the Sepharose - 4B - L - tyrosine - sulfanilamide affinity segregation method as reported. […] Inhibitory effects of the compounds were investigated by measuring the esterase activity according to Verpoorte et al. as described in previous. […] All chemicals were purchased from Sigma-Aldrich Chemie GmbH.

hCA II = hCA II (Homo sapiens, UniProt P00918); assay: as above; type: biochemical
Procedure: Human CA isoforms (hCAI and hCAII) were purified by the Sepharose - 4B - L - tyrosine - sulfanilamide affinity segregation method as reported. Bradford technique was used to measure protein concentrations at 595 nm. Inhibitory effects of the compounds were investigated by measuring the esterase activity according to Verpoorte et al. as described in previous. The hCA activity was determined by measuring the conversion of thep-nitrophenyl acetate substrate to p -nitro phenolate at 348 nm by the spectrophotometer (UV - VIS Spectrophotometer, UVmini-1240, Shimadzu Corporation, Kyoto, Japan). Acetazolamide (AZA) was used as a control drug. Lineweaver–Burk plot was used to calculate inhibition constants (Ki) of the compounds [33]. All chemicals were purchased from Sigma-Aldrich Chemie GmbH.

Sequence of hCA I (P00915 whole entry, canonical isoform): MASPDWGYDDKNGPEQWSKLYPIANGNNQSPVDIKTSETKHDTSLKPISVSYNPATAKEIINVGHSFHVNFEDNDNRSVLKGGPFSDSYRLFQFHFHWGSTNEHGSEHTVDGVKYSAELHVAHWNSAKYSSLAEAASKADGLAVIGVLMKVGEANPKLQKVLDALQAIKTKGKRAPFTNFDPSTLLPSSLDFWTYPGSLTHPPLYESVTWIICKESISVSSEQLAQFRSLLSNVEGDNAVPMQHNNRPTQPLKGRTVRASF

Row | Compound | IC50 (hCA I) [nM] | Ki (hCA I) [nM] | IC50 (hCA II) [nM] | Ki (hCA II) [nM] | fold more potent against hCAII than reference AZA (hCA II; based on Ki values) [fold] | fold more potent inhibitor against hCAI than reference AZA (hCA I; based on Ki values) [fold]
1 | Cc1nnc(SCC(=O)c2ccc(O)cc2)s1 [Compound 4, 1-(4-Hydroxyphenyl)-2-((5-methyl-1,3,4-thiadiazol-2-yl)thio)ethanone] | 48.1 | 13.8 ± 2.47 | 41.7 | 16.9 ± 3.99 | – | –
2 | Cn1ccnc1SCC(=O)c1ccc(O)cc1 [Compound 3, 1-(4-Hydroxyphenyl)-2-((1-methyl-1H-imidazol-2-yl)thio)ethanone] | 35.2 | 17.8 ± 2.08 | 39.8 | 31.6 ± 3.29 | – | –
3 | Cn1nnnc1SCC(=O)c1ccc(O)cc1 [Compound 6, 1-(4-Hydroxyphenyl)-2-((1-methyl-1 H -tetrazol-5-yl)thio)ethanone] | 62.5 | 14.4 ± 3.71 | 57.3 | 27.4 ± 11.8 | – | –
4 | O=C(CSc1nc2ccccc2s1)c1ccc(O)cc1 [Compound 1, 2-(Benzo[d]thiazol-2-ylthio)-1-(4-hydroxyphenyl)ethanone] | 35.4 | 14.6 ± 2.06 | 29.4 | 8.76 ± 0.84 | 2.0 | –
5 | O=C(CSc1nc2ccccc2o1)c1ccc(O)cc1 [Compound 2, 2-(Benzo[d]oxazol-2-ylthio)-1-(4-hydroxyphenyl)ethanone] | 32.8 | 8.61 ± 0.9 | 43.6 | 23.4 ± 7.13 | – | 2.5
6 | Cn1cnnc1SCC(=O)c1ccc(O)cc1 [Compound 5, 1-(4-Hydroxyphenyl)-2-((4-methyl-4 H -1,2,4-triazol-3-yl)thio)ethanone] | 65.6 | 42.6 ± 7.59 | 34 | 14.3 ± 5.1 | – | –
